# Active and inactive are the calls of the source. The rule behind the calls is not given here.
# Key:
# Type in all cases: functional, cell-based
# [1] = target: T1, Taste receptor type 2 member 10 (Homo sapiens) (UniProt Q9NYW0); test: Antagonist activity at recombinant human N-terminal rat ST3 receptor-fused TAS2R10 expressed in HEK293T cells co-expressing Galpha16gust44 assessed as inhibition of strychnine-induced increase in intracellular calcium level at 100 uM by FLIPR assay
# T1 sequence (whole entry): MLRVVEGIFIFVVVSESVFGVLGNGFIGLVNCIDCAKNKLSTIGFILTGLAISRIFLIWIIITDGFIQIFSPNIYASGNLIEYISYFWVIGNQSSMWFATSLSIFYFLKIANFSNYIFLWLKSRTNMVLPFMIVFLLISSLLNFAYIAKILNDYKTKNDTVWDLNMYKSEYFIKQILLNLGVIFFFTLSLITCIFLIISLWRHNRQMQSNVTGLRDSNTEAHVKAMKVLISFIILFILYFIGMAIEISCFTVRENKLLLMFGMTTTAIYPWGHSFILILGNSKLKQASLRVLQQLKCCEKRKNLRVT
# [2] = test system: HEK-293T; test: Effect on intracellular calcium level in mock-transfected HEK293T cells at 100 uM FLIPR assay; details: Homo sapiens
# [3] = target: T2, Taste receptor type 2 member 39 (Homo sapiens) (UniProt P59534); test: Antagonist activity at recombinant human N-terminal rat ST3 receptor-fused TAS2R39 expressed in HEK293T cells co-expressing Galpha16gust44 assessed as inhibition of epigallocatechin galiate-induced increase in intracellular calcium level at 100 uM by FLIPR assay
# T2 sequence (whole entry): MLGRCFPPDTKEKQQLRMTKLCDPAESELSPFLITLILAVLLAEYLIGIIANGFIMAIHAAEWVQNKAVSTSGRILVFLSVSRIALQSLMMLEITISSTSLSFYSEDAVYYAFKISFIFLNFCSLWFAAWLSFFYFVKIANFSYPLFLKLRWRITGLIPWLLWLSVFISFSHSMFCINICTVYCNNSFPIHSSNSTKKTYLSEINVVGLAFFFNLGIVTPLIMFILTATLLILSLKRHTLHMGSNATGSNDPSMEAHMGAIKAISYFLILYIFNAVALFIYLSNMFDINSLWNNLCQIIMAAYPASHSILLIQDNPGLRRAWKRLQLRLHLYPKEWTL
# [4] = target: T3, Taste receptor type 2 member 31 (Homo sapiens) (UniProt P59538); test: Antagonist activity at recombinant human N-terminal rat ST3 receptor-fused TAS2R44 expressed in HEK293T cells co-expressing Galpha16gust44 assessed as inhibition of aristolochic acid-induced intracellular calcium level at 100 uM by FLIPR assay
# T3 sequence (whole entry): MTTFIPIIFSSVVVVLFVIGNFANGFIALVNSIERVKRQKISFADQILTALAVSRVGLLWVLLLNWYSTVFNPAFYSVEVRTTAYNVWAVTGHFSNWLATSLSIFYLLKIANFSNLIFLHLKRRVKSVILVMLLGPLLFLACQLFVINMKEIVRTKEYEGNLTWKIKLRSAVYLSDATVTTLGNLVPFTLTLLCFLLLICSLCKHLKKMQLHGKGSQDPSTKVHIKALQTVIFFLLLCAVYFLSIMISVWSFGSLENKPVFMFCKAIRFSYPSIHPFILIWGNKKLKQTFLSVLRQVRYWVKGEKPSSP
# [5] = target: T4, Taste receptor type 2 member 14 (Homo sapiens) (UniProt Q9NYV8); test: Agonist activity at recombinant human N-terminal rat ST3 receptor-fused TAS2R14 expressed in HEK293T cells co-expressing Galpha16gust44 assessed as increase in intracellular calcium level at 100 uM by FLIPR assay
# T4 sequence (whole entry): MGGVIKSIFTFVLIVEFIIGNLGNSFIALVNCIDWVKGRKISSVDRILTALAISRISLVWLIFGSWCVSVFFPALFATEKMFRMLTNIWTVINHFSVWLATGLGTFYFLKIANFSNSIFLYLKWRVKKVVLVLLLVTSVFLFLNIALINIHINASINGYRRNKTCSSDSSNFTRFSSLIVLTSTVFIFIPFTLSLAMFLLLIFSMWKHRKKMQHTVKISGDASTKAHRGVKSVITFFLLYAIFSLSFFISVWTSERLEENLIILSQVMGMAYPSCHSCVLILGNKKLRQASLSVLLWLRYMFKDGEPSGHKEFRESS
# [6] = target: T1, Taste receptor type 2 member 10 (Homo sapiens); test: Agonist activity at recombinant human N-terminal rat ST3 receptor-fused TAS2R10 expressed in HEK293T cells co-expressing Galpha16gust44 assessed as increase in intracellular calcium level at 100 uM by FLIPR assay
# [7] = target: T5, Taste receptor type 2 member 46 (Homo sapiens) (UniProt P59540); test: Agonist activity at recombinant human N-terminal rat ST3 receptor-fused TAS2R46 expressed in HEK293T cells co-expressing Galpha16gust44 assessed as increase in intracellular calcium level at 100 uM by FLIPR assay
# T5 sequence (whole entry): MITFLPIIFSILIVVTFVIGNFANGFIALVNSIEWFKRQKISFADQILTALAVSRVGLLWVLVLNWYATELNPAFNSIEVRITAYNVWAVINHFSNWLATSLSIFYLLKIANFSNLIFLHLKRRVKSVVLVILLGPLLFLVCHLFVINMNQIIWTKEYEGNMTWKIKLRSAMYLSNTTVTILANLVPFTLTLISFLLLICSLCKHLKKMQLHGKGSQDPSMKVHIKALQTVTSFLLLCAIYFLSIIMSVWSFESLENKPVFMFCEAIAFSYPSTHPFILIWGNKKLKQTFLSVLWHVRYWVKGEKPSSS
# [8] = target: T4, Taste receptor type 2 member 14 (Homo sapiens); test: Antagonist activity at recombinant human N-terminal rat ST3 receptor-fused TAS2R14 expressed in HEK293T cells co-expressing Galpha16gust44 assessed as inhibition of aristolochic acid-induced increase in intracellular calcium level at 100 uM by FLIPR assay
# [9] = target: T6, Taste receptor type 2 member 13 (Homo sapiens) (UniProt Q9NYV9); test: Agonist activity at recombinant human N-terminal rat ST3 receptor-fused TAS2R13 expressed in HEK293T cells co-expressing Galpha16gust44 assessed as increase in intracellular calcium level at 100 uM by FLIPR assay
# T6 sequence (whole entry): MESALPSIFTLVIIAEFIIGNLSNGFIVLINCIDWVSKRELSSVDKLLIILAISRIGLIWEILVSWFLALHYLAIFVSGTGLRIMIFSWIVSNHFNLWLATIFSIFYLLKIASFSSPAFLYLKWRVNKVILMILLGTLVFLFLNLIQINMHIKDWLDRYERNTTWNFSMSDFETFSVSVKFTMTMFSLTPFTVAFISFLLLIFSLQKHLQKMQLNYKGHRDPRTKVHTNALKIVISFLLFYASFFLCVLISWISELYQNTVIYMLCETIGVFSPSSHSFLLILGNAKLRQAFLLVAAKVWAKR
# [10] = target: Taste receptor type 2 member 60 (Homo sapiens) (UniProt P59551); test: Agonist activity at recombinant human N-terminal rat ST3 receptor-fused TAS2R60 expressed in HEK293T cells co-expressing Galpha16gust44 assessed as increase in intracellular calcium level at 100 uM by FLIPR assay
# Sequence of Taste receptor type 2 member 60 (Homo sapiens) (P59551 whole entry, the tested form may be a part): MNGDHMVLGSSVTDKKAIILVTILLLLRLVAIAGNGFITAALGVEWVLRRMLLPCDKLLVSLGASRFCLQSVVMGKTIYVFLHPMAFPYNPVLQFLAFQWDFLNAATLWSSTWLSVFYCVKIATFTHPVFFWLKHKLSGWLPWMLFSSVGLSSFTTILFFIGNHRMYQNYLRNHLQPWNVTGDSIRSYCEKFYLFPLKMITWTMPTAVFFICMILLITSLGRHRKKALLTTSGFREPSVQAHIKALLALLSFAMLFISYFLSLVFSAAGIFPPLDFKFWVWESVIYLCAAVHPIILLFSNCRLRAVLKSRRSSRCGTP
Structure (SMILES),inhibition [1],Activity [2],inhibition [3],inhibition [4],Activity [5],Activity [6],Activity [7],inhibition [8],Activity [9],Activity [10]
C/C1=C\C[C@H](O)[C@@H](C)C[C@H]2OC(=O)[C@@H](C)[C@@H]2CC1,inactive,inactive,inactive,Active,Active,Active,Active,inactive,–,–
C/C1=C\C[C@H](O)/C(C)=C/[C@H]2OC(=O)[C@@H](C)[C@@H]2CC1,inactive,inactive,inactive,inactive,Active,Active,inactive,inactive,inactive,inactive

# Source: ChEMBL document CHEMBL4418912, “Methods of identifying antagonists of the hTAS2R46 bitter taste receptor” (2014)
